Assay results: patent publication US8071576B2, “Method of preventing or treating benign gynaecological disorders” (Pantarhei Bioscience B.V., priority 2001, dated 2011)

How the values were obtained:
endometrium [1] = assay: McPhail test: endometrial differentiation in estradiol-pretreated rabbits; type: in vivo; conditions: rabbits pretreated with 5 μg 17β-estradiol s.c. for 6 days; levonorgestrel 8 μg/day oral and/or testosterone 20 mg/day s.c. for 5 days; scores 0-4
Experimental: The effects on endometrium of the progestogen levonorgestrel and the androgen testosterone were determined in rabbits according to the method of McPhail (Mc Phail M. K. “The assay of progestin” J Physiol (1934), 83, 145-156). Four groups of each 5 rabbits were pretreated with daily subcutaneous dosages of 5 μg 17β-estradiol for 6 days.
After pretreatment, 3 groups either received levonorgestrel at an oral dose of 8 μg per day for 5 days, testosterone in a subcutaneous dose of 20 mg per day for 5 days, or levonorgestrel and testosterone together in the aforementioned routes and doses for 5 days. The fourth group was used as the negative control.
Autopsy was performed after the treatment period and the uterus was weighed and histological sections were prepared from each uterine horn and these were microscopically evaluated according to the McPhail Index (scores 0-4; 0=no differentiation; 4=maximal differentiation).

[2] = Clinical study: 17β-estradiol/norethisterone acetate with or without DHEA (Example 3); type: in vivo; conditions: 50 mg DHEA daily oral added to 3 mg 17β-estradiol and 1.5 mg norethisterone acetate for 104 days, versus women not receiving DHEA
Experimental: A clinical study is conducted in 100 healthy young women. […] Vaginal spotting and bleeding is scored daily by the participants in a diary. The effects on general well being are scored at baseline and at each study visit (every 5 weeks during study drug administration) using the psychometric rating scale described in example 2.
Ovulation inhibition is investigated by analysing pregnanediol samples twice a week during 4 weeks between week 7 and 14. In addition, endocrine measurements are performed in a subgroup of the participants (17β-estradiol, progesterone, total testosterone, LH, FSH and SHBG).

[3] = Clinical study: ethinyl estradiol/levonorgestrel with or without DHEA (Example 2); type: in vivo; conditions: 50 mg DHEA daily oral added to ethinyl estradiol/levonorgestrel for 104 days, versus women not receiving DHEA
Experimental: A clinical study is conducted in 200 healthy young women. […] Vaginal spotting and bleeding is scored daily by the participants in a diary and the effects on general well being are scored at baseline and at each study visit (every 5 weeks during study drug administration) on a psychometric rating scale. The psychometric rating scale used is especially suited for identifying differences in a population of healthy young women. The scale is a 24-item (placid, sleepy, jittery, intense, lacking confidence, energetic, sensitive, tired, well-balanced, at-rest, drowsy, fearful, lively, sickly, in a good mood, irritable, lethargic, quiet, full-of-pep, optimistic, moody, active, tense, sad), 4-point (yes, definitely; yes, a bit; no, in fact not; no, definitely not) scale to be scored by the person themself. In addition, endocrine measurements are performed in a subgroup of the participants (17β-estradiol, progesterone, total testosterone, LH, FSH and SHBG).

endometrium [4] = conditions: DHEA applied on the dorsal skin of ovariectomized rats, all time intervals; cited from earlier work
androgen receptors = biological target: T1, androgen receptors (Homo sapiens, UniProt P10275); conditions: precursors per se, in the female body; cited from earlier work
T1 sequence (P10275 1-920): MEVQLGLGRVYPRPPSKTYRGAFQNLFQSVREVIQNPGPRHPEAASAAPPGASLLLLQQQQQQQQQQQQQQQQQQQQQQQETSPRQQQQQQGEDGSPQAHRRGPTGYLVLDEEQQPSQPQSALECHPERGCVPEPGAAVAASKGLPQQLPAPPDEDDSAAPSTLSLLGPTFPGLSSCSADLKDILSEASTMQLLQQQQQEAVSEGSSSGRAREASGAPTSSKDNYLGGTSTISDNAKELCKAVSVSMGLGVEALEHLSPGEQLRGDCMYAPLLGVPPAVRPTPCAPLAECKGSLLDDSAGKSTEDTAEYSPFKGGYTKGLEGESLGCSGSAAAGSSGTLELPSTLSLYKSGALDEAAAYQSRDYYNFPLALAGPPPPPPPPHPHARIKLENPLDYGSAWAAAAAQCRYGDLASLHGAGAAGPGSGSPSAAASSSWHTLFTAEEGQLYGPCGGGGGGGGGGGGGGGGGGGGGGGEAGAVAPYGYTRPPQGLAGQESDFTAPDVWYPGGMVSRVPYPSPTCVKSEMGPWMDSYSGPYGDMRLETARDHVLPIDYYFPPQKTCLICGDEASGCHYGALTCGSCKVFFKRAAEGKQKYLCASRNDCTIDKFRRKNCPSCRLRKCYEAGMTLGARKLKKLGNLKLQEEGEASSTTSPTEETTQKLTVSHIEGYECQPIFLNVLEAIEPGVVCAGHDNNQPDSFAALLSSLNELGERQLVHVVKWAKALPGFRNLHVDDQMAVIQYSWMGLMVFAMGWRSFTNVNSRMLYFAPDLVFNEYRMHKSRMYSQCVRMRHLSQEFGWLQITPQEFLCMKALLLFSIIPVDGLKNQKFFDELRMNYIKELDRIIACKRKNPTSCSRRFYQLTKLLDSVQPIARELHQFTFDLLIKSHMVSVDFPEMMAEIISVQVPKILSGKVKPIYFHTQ

Work on `C#C[C@]1(O)CC[C@H]2[C@@H]3CCC4=CC(=O)CC[C@@H]4[C@H]3CC[C@@]21CC` [levonorgestrel] yielded a McPhail index (endometrium [1]) of 2.1±0.4.

With `C[C@]12CC[C@H](O)CC1=CC[C@@H]1[C@@H]2CC[C@]2(C)C(=O)CC[C@@H]12` [DHEA, dehydroepiandrosterone] the “psychometric scores on items in the domain of energy” value [2] was “generally better scores”, the side effects [2] was “less side effects” and the “vaginal breakthrough spotting and bleeding” value [2] was “less vaginal breakthrough spotting and bleeding”. The “psychometric scores on items in the domain of energy” value [3] was “generally better scores”, the side effects [3] was “less side effects” and the “vaginal breakthrough spotting and bleeding” value [3] was “less vaginal breakthrough spotting and bleeding”. For the same compound, the “state of the endometrium during DHEA treatment” value (endometrium [4]) was “remained atrophic”.

`C[C@]12CC[C@H]3[C@@H](CCC4=CC(=O)CC[C@@]43C)[C@@H]1CC[C@@H]2O` [testosterone] gave a McPhail index (endometrium [1]) of 2.9±0.1.

For `CCCCCCCCCCC(=O)O[C@H]1CC[C@H]2[C@@H]3CCC4=CC(=O)CC[C@]4(C)[C@H]3CC[C@]12C` [testosterone undecanoate], the “affinity for the androgen receptors” value (androgen receptors) is given as “virtually no affinity”.
